# Source: patent US5859026A, “Quinoline carboxylic acid” (priority 1995, dated 1999)
# Key:
# Male Wistar rats = assay: Induction of convulsions, intracerebroventricular (i.c.v.) administration; format: in vivo, rat; settings: 30 minutes after i.p. fenbufen 50 mg/kg, observed at least 4 hours; for Induction of convulsion, i.c.v. (number of rats with convulsions): animals with convulsions/animals tested
# Procedure: 2) Intracerebroventricular (i.c.v.) administration
# Male Wistar rats (weighing 180-220 g) were anesthetized with sodium pentobarbital at 45 mg/kg, i.p., and then the head of the rat was fixed in a stereotaxic apparatus. A stainless steel guide cannula for intracerebroventricular injectionin in 0.6 mm diameter was implanted as a guide cannula so as to be positioned at 1.5 mm above the left lateral cerebroventricle (A:6.2,R:1.0,H:+1.0) according to the brain atlas of De Groot (1959). The guide cannula was fixed by using a dental cement, and then closed with a stainless steel stylet in 0.3 mm diameter. Potassium penicillin G (10,000 units) were subcutaneously administered to prevent an infection. The rats were subjected to the experiments after recovery time for several days from the surgery.
# For the measurement of the induction of convulsions, 50 mg/kg of fenbufen was intraperitoneally administered, and then the test compound was intracerebroventricularly administered after 30 minutes from the administration of fenbufen by means of a stainless steel cannula in 0.3 mm diameter that was connected with a polyethylene catheter and adjusted so as to be 1.5 mm longer than the guide cannula for an administration at an accurate position of cerebroventricle (H:+1.0). […] After the completion of the above experiment, the administered positions were confirmed by intraventricularly injecting 10 μl of 1% Evans blue to each of the rats, and followed by sectioning the brains.
# [1] = system: Chinese hamster lung cell line (CHL cell); assay: Chromosomal aberration test; format: cell-based; settings: 100 μg/ml, 6 hours treatment at 37° C., then 18 hours in fresh medium
# Procedure: 2. Chromosomal aberration test
# The experiments were carried out using a Chinese hamster lung cell line (CHL cell). The test compounds prepared were added to cultured cells, and cultivation was continued for 6 hours at 37° C. in 5% CO2. 2-(2-furyl)-3-(5-nitro-2-furyl) acrylamide was used as a positive control. After the cultivation for 6 hours, the cells were washed and added with fresh medium, and then cultivation was further continued for 18 hours. Colcemide solution was added to the culture 2 hours before the completion of the cultivation, and the chromosomal specimens were prepared after the cultivation was completed. Incidence rates of aberration cells were measured at the treatments with 100 μg/ml of the test compounds.
# male ICR mice = assay: Induction of convulsions, intraperitoneal (i.p.) administration; format: in vivo, mouse; settings: 100 mg/kg i.p., 30 minutes after oral fenbufen 100 mg/kg; for Induction of convulsion, i.p. (number of mice with convulsions): animals with convulsions/animals tested
# Source text: 4. The induction of convulsions
# 1) Intraperitoneal (i.p.) administration
# S. marcescens IAM 1184 = assay: Antibacterial activity (MIC), standard strain; format: cell-based; settings: Serratia marcescens, IAM1184; standard strain S. marcescens IAM 1184, Gram -, 10^6 viable cells per ml; read-out: minimum inhibitory concentration (MIC)
# Source text: (§1) 1. Antibacterial spectrum against standard strains and clinically isolated strains
# S. aureus FDA 209P JC-1 = assay: Antibacterial activity (MIC), standard strain; format: cell-based; settings: Staphylococcus aureus, FDA209P; standard strain S. aureus FDA 209P JC-1, Gram +, 10^6 viable cells per ml; read-out: minimum inhibitory concentration (MIC)
# Source text: as §1
# E. coli NIHJ JC-2 = assay: Antibacterial activity (MIC), standard strain; format: cell-based; settings: Escherichia coli, NIHJJC2; standard strain E. coli NIHJ JC-2, Gram -, 10^6 viable cells per ml; read-out: minimum inhibitory concentration (MIC)
# Source text: as §1
# K. pneumoniae PCI-602 = assay: Antibacterial activity (MIC), standard strain; format: cell-based; settings: Klebsiella pneumoniae, PCI602; standard strain K. pneumoniae PCI-602, Gram -, 10^6 viable cells per ml; read-out: minimum inhibitory concentration (MIC)
# Source text: as §1
# Male Hartley guinea pigs = assay: Phototoxicity; format: in vivo, guinea pig; settings: 10 mg/kg intravenous, UV exposure 90 minutes, observed 24 hours after irradiation; animals with erythemas/animals tested
# Procedure: Male Hartley guinea pigs were intravenously administered with test compounds at a dose of 10 mg/kg, and then immediately exposed to WVA on their backs for 90 minutes. Erythemas on the UV irradiated skin were observed 24 hours after the irradiation.
# E. colacae 963 = assay: Antibacterial activity (MIC), standard strain; format: cell-based; settings: Enterobacter cloacae; standard strain E. colacae 963, Gram -, 10^6 viable cells per ml; read-out: minimum inhibitory concentration (MIC)
# Procedure: as §1
# Antibacterial activities (minimum inhibitory concentration: MIC) were determined according to the standard method of the Japan Society of Chemotherapy (Chemotherapy (Tokyo), 29 (1), 76, 1981) by using standard strains and strains isolated from patients of infectious disease (clinically isolated strains) and applying 10^6 viable cells per ml. […].
# A. calcoaceticus HNR916 = assay: Antibacterial activity (MIC), clinically isolated strain; format: cell-based; settings: Acinetobacter calcoaceticus; clinical isolate A. calcoaceticus HNR916, Gram -, 10^6 viable cells per ml; read-out: minimum inhibitory concentration (MIC)
# Source text: as §1
# K. pneumoniae HNR858 = assay: as above; format: cell-based; settings: Klebsiella pneumoniae; clinical isolate K. pneumoniae HNR858, Gram -, 10^6 viable cells per ml; read-out: minimum inhibitory concentration (MIC)
# Source text: as §1
# E. cloacae HNR1939 = assay: as above; format: cell-based; settings: Enterobacter cloacae; clinical isolate E. cloacae HNR1939, Gram -, 10^6 viable cells per ml; read-out: minimum inhibitory concentration (MIC)
# Source text: as §1
# E. cloacae HNR1946 = assay: as above; format: cell-based; settings: Enterobacter cloacae; clinical isolate E. cloacae HNR1946, Gram -, 10^6 viable cells per ml; read-out: minimum inhibitory concentration (MIC)
# Source text: as §1
# S. marcescens HNR1767 = assay: as above; format: cell-based; settings: Serratia marcescens; clinical isolate S. marcescens HNR1767, Gram -, 10^6 viable cells per ml; read-out: minimum inhibitory concentration (MIC)
# Source text: as §1
# E. faecalis HPC984 = assay: as above; format: cell-based; settings: Enterococcus faecalis; clinical isolate E. faecalis HPC984, Gram +, 10^6 viable cells per ml; read-out: minimum inhibitory concentration (MIC)
# Source text: as §1
# S. marcescens HNR1544 = assay: as above; format: cell-based; settings: Serratia marcescens; clinical isolate S. marcescens HNR1544, Gram -, 10^6 viable cells per ml; read-out: minimum inhibitory concentration (MIC)
# Source text: as §1
# E. faecalis HPC948 = assay: as above; format: cell-based; settings: Enterococcus faecalis; clinical isolate E. faecalis HPC948, Gram +, 10^6 viable cells per ml; read-out: minimum inhibitory concentration (MIC)
# Source text: as §1
# A. calcoaceticus HNR939 = assay: as above; format: cell-based; settings: Acinetobacter calcoaceticus; clinical isolate A. calcoaceticus HNR939, Gram -, 10^6 viable cells per ml; read-out: minimum inhibitory concentration (MIC)
# Source text: as §1
# E. faecalis HPC975 = assay: as above; format: cell-based; settings: Enterococcus faecalis; clinical isolate E. faecalis HPC975, Gram +, 10^6 viable cells per ml; read-out: minimum inhibitory concentration (MIC)
# Source text: as §1
# S. aureus HPC308 = assay: as above; format: cell-based; settings: Staphylococcus aureus; clinical isolate S. aureus HPC308, Gram +, 10^6 viable cells per ml; read-out: minimum inhibitory concentration (MIC)
# Source text: as §1
# K. pneumoniae HNR828 = assay: as above; format: cell-based; settings: Klebsiella pneumoniae; clinical isolate K. pneumoniae HNR828, Gram -, 10^6 viable cells per ml; read-out: minimum inhibitory concentration (MIC)
# Source text: as §1
# S. aureus HPC527 = assay: as above; format: cell-based; settings: Staphylococcus aureus; clinical isolate S. aureus HPC527, Gram +, 10^6 viable cells per ml; read-out: minimum inhibitory concentration (MIC)
# Source text: as §1
# S. aureusHPC292 = assay: as above; format: cell-based; settings: Staphylococcus aureus, read-out: minimum inhibitory concentration (MIC)
# Source text: as §1
# S. marcescens HNR1792 = assay: as above; format: cell-based; settings: Serratia marcescens; clinical isolate S. marcescens HNR1792, Gram -, 10^6 viable cells per ml; read-out: minimum inhibitory concentration (MIC)
# Source text: as §1
# E. cloacae HNR1941 = assay: as above; format: cell-based; settings: Enterobacter cloacae; clinical isolate E. cloacae HNR1941, Gram -, 10^6 viable cells per ml; read-out: minimum inhibitory concentration (MIC)
# Source text: as §1
# A. calcoaceticus HNR904 = assay: as above; format: cell-based; settings: Acinetobacter calcoaceticus; clinical isolate A. calcoaceticus HNR904, Gram -, 10^6 viable cells per ml; read-out: minimum inhibitory concentration (MIC)
# Source text: as §1
# K. pneumoniae HNR869 = assay: as above; format: cell-based; settings: Klebsiella pneumoniae; clinical isolate K. pneumoniae HNR869, Gram -, 10^6 viable cells per ml; read-out: minimum inhibitory concentration (MIC)
# Source text: as §1
smiles,measurement,setting,value
"O=C(O)c1cn(C2CC2)c2cc(N3CCNCC3)c(F)cc2c1=O [Reference Compound A, Ciprofloxacin]","Induction of convulsions, i.c.v. (in words)",Male Wistar rats,convulsions were observed in all of the animals (each three animals)
same,"Induction of convulsion, i.c.v. (number of rats with convulsions)",Male Wistar rats,3/3
same,incidence rate of the aberration cells,[1],less than 10%
same,"Induction of convulsions, i.p. (in words)",male ICR mice,convulsions were observed in the half of the animals
same,"Induction of convulsion, i.p. (number of mice with convulsions)",male ICR mice,3/6
"Cc1c(N2CCNCC2)c(F)c(N)c2c(=O)c(C(=O)O)cn(C3CC3)c12 [Reference Compound B, 5-amino-1-cyclopropyl-6-fluoro-1,4-dihydro-8-methyl-4-oxo-7-piperazinylquinoline-3-carboxylic acid, reference compound]","Induction of convulsions, i.c.v. (in words)",Male Wistar rats,convulsions were observed in all of the animals (each three animals)
same,"Induction of convulsion, i.c.v. (number of rats with convulsions)",Male Wistar rats,3/3
same,MIC,S. marcescens IAM 1184,0.2 µg/mL
same,MIC,S. aureus FDA 209P JC-1,0.1 µg/mL
same,MIC,E. coli NIHJ JC-2,0.05 µg/mL
same,MIC,K. pneumoniae PCI-602,0.006 µg/mL
same,Phototoxicity (number of guinea pigs with erythemas),Male Hartley guinea pigs,0/5
same,MIC,E. colacae 963,0.1 µg/mL
same,"Induction of convulsions, i.p. (in words)",male ICR mice,inducing actions of convulsions were not noticeable
same,"sedative symptoms considered as precursory symptoms of convulsions, i.p.",male ICR mice,All of the animals exhibited sedative symptoms
same,"Induction of convulsion, i.p. (number of mice with convulsions)",male ICR mice,0/6
same,"sedative symptoms considered as precursory symptoms of convulsions, i.p.",male ICR mice; listed as reference compound B,all of the animals exhibited sedative symptoms
same,MIC,A. calcoaceticus HNR916,0.1 µg/mL
same,MIC,K. pneumoniae HNR858,0.78 µg/mL
same,MIC,E. cloacae HNR1939,0.78 µg/mL
same,MIC,E. cloacae HNR1946,0.78 µg/mL
same,MIC,S. marcescens HNR1767,50 µg/mL
same,MIC,E. faecalis HPC984,0.39 µg/mL
same,MIC,S. marcescens HNR1544,0.1 µg/mL
same,MIC,E. faecalis HPC948,6.25 µg/mL
same,MIC,A. calcoaceticus HNR939,3.13 µg/mL
same,MIC,E. faecalis HPC975,12.5 µg/mL
same,MIC,S. aureus HPC308,6.25 µg/mL
same,MIC,K. pneumoniae HNR828,12.5 µg/mL
same,MIC,S. aureus HPC527,0.1 µg/mL
same,MIC,S. aureusHPC292,25 µg/mL
same,MIC,S. marcescens HNR1792,6.25 µg/mL
same,MIC,E. cloacae HNR1941,25 µg/mL
same,MIC,A. calcoaceticus HNR904,50 µg/mL
same,MIC,K. pneumoniae HNR869,6.25 µg/mL
